Measurements published in US8835660B2, “Method for extracting organic compounds from aqueous mixtures” (The Regents of the University of California, priority 2010, dated 2014).
Read-outs that look alike come from different tables or passages of the source.

Tests used:
[1] = Distribution of ethanol and isobutanol between water and DEB phases; type: physicochemical; conditions: for Distribution coefficient of isobutanol (DEB/water) / Amount of iBuOH in water (final) / Amount of iBuOH in DEB (final) / Amount of EtOH in water (final) / D = conc. of EtOH in DEB/conc. of EtOH in water / Amount of EtOH in DEB (final): single extraction; for Amount of iBuOH in DEB (final) / Amount of EtOH in DEB (final): mass balance
Experimental: The amount of ethanol and isobutanol in water phase was measured using HPLC (see above for details). The concentrations of ethanol taken were: 8, 6, 3, 2, 1 and 0.5 wt %.
Distribution coefficient is reported on the basis of HPLC results of aqueous phase and that of mass balance of both the phases. Experiments are currently underway to determine the amount of ethanol, iso butanol in DEB phase. Gas chromatography will be used to quantify the amount of ethanol and isobutanol present in the DEB phase. Water measurements will be done using a Karl Fischer apparatus.
Here also, distribution coefficient is reported on the basis of HPLC results of aqueous phase and that of mass balance of both the phase.

[2] = for Water in DEB / AcOH in DEB / AcOH in water (final in DEB) / D = AcOH in DEB/AcOH in water: 25° C., single extraction
[3] = cloud-point
[4] = Distribution of hydroxymethylfurfural and furfural between water and DEB phases; type: physicochemical; conditions: 25° C., single extraction; for Amount of HMF in DEB phase (g) (final in DEB phase) / Amount of furfural in DEB phase (g) (final in DEB phase): mass balance
Experimental: The amounts of hydroxymethylfurfural and furfural in water phase were measured
using HPLC (see above for details). […] Distribution coefficient is reported on the basis of HPLC results of aqueous phase and that of mass balance of both the phases. The amount of hydroxymethylfurfural in DEB phase may be quantified using gas chromatography. Water measurements of the separated DEB phase containing hydroxymethylfurfural may be carried out using a Karl Fischer apparatus.
Distribution coefficient is reported on the basis of HPLC results of aqueous phase and that of mass balance of both the phases. The amount of furfural in DEB phase may be quantified using gas chromatography. Water measurements of the separated DEB phase containing furfural may be carried out using a Karl Fischer apparatus.

[5] = 4.76 g DEB, 0.26 g iBuOH initially in 4.74 g water
[6] = 4.88 g DEB, 0.13 g iBuOH initially in 4.89 g water
[7] = 4.93 g DEB, 0.071 g iBuOH initially in 4.92 g water
[8] = 5.08 g DEB, 0.028 g iBuOH initially in 5.03 g water
[9] = 4.91 g DEB, 0.33 g AcOH initially in 4.1 g water
[10] = 5.8 g DEB, 0.17 g AcOH initially in 4.2 g water
[11] = 6.5 g DEB, 0.07 g AcOH initially in 4.3 g water
[12] = 4.63 g DEB, 0.99 g EtOH initially in 4.62 g water
[13] = 4.71 g DEB, 0.31 g EtOH initially in 4.70 g water
[14] = 4.85 g DEB, 0.16 g EtOH initially in 4.86 g water
[15] = 4.92 g DEB, 0.11 g EtOH initially in 4.89 g water
[16] = 4.97 g DEB, 0.06 g EtOH initially in 4.98 g water
[17] = 5.02 g DEB, 0.03 g EtOH initially in 5.03 g water
[18] = 5.01 g DEB, 0.0132 g HMF initially in 5.01 g water
[19] = 5.01 g DEB, 0.0512 g HMF initially in 5.11 g water
[20] = 5.02 g DEB, 0.0251 g HMF initially in 5.03 g water
[21] = 4.98 g DEB, 0.0491 g furfural initially in 5.01 g water
[22] = 5.02 g DEB, 0.0242 g furfural initially in 4.98 g water
[23] = 5.11 g DEB, 0.0141 g furfural initially in 5.05 g water

CC(C)CO [isobutanol]
measured distribution coefficients ([1]; 5, 3, 2, and 1 wt % of isobutanol): 2.5-3.5
concentration in DEB relative to concentration in water at equilibrium ([1]; DEB and water phases in equilibrium): 2-3 times
Distribution coefficient of isobutanol (DEB/water) [1, 5]: 2.71
Distribution coefficient of isobutanol (DEB/water) [1, 6]: 3.33
Distribution coefficient of isobutanol (DEB/water) [1, 7]: 2.72
Distribution coefficient of isobutanol (DEB/water) [1, 8]: 3.59
Amount of iBuOH in water (final) [1, 5]: 0.07 grams
Amount of iBuOH in DEB (final) [1, 5]: 0.19 grams
Amount of iBuOH in water (final) [1, 6]: 0.03 grams
Amount of iBuOH in DEB (final) [1, 6]: 0.10 grams
Amount of iBuOH in water (final) [1, 7]: 0.018 grams
Amount of iBuOH in DEB (final) [1, 7]: 0.053 grams
Amount of iBuOH in water (final) [1, 8]: 0.0061 grams
Amount of iBuOH in DEB (final) [1, 8]: 0.0219 grams

water
Water in DEB [2, 9]: 300 µg
Water in DEB [2, 10]: 100 µg
Water in DEB [2, 11]: 90 µg
water content in the DEB phase ([2]; after contact experiment with acetic acid solutions): less than 300 ppm

CCCCOCCOCCOCCCC [DEB, diethylene glycol dibutyl ether]
DEB solubility in water [3]: less than 10 ppm

CCO [ethanol]
Amount of EtOH in water (final) [1, 12]: 0.51 grams
D = conc. of EtOH in DEB/conc. of EtOH in water [1, 12]: 0.94
Amount of EtOH in DEB (final) [1, 12]: 0.48 grams
Amount of EtOH in water (final) [1, 13]: 0.15 grams
D = conc. of EtOH in DEB/conc. of EtOH in water [1, 13]: 1.06
Amount of EtOH in DEB (final) [1, 13]: 0.16 grams
Amount of EtOH in water (final) [1, 14]: 0.073 grams
D = conc. of EtOH in DEB/conc. of EtOH in water [1, 14]: 1.2
Amount of EtOH in DEB (final) [1, 14]: 0.087 grams
Amount of EtOH in water (final) [1, 15]: 0.052 grams
D = conc. of EtOH in DEB/conc. of EtOH in water [1, 15]: 1.11
Amount of EtOH in DEB (final) [1, 15]: 0.058 grams
Amount of EtOH in water (final) [1, 16]: 0.031 grams
D = conc. of EtOH in DEB/conc. of EtOH in water [1, 16]: 0.93
Amount of EtOH in DEB (final) [1, 16]: 0.029 grams
Amount of EtOH in water (final) [1, 17]: 0.014 grams
D = conc. of EtOH in DEB/conc. of EtOH in water [1, 17]: 1.16
Amount of EtOH in DEB (final) [1, 17]: 0.016 grams

O=Cc1ccc(CO)o1 [hydroxymethylfurfural]
Amount of HMF in water phase (g) (final) [4, 18]: 0.0083 g
D = conc. of HMF in DEB/conc. of HMF in water [4, 18]: 0.61
Amount of HMF in DEB phase (g) (final in DEB phase) [4, 18]: 0.0050 g
Amount of HMF in water phase (g) (final) [4, 19]: 0.0321 g
D = conc. of HMF in DEB/conc. of HMF in water [4, 19]: 0.59
Amount of HMF in DEB phase (g) (final in DEB phase) [4, 19]: 0.0191 g
Amount of HMF in water phase (g) (final) [4, 20]: 0.0161 g
D = conc. of HMF in DEB/conc. of HMF in water [4, 20]: 0.54
Amount of HMF in DEB phase (g) (final in DEB phase) [4, 20]: 0.0088 g

CC(=O)O [acetic acid]
AcOH in DEB [2, 9]: 0.171 grams
AcOH in water (final in DEB) [2, 9]: 0.163 grams
D = AcOH in DEB/AcOH in water [2, 9]: 1.1
AcOH in DEB [2, 10]: 0.088 grams
AcOH in water (final in DEB) [2, 10]: 0.082 grams
D = AcOH in DEB/AcOH in water [2, 10]: 1.08
AcOH in DEB [2, 11]: 0.033 grams
AcOH in water (final in DEB) [2, 11]: 0.034 grams
D = AcOH in DEB/AcOH in water [2, 11]: 0.98

O=Cc1ccco1 [furfural]
Amount of furfural in water phase (g) (final) [4, 21]: 0.0249 g
D = conc. of furfural in DEB/conc. of furfural in water [4, 21]: 0.98
Amount of furfural in DEB phase (g) (final in DEB phase) [4, 21]: 0.0242 g
Amount of furfural in water phase (g) (final) [4, 22]: 0.0161 g
D = conc. of furfural in DEB/conc. of furfural in water [4, 22]: 0.91
Amount of furfural in DEB phase (g) (final in DEB phase) [4, 22]: 0.0088 g
Amount of furfural in water phase (g) (final) [4, 23]: 0.0069 g
D = conc. of furfural in DEB/conc. of furfural in water [4, 23]: 1.03
Amount of furfural in DEB phase (g) (final in DEB phase) [4, 23]: 0.0071 g
